From ChEMBL document CHEMBL1201862, “PubChem BioAssay data set” (2004) come the findings set out here.

Molecules are shown by their SMILES. The source made the active and inactive calls.

As usually defined, the IC50 is the point on the concentration scale where inhibition reaches its midpoint. Usually EC50 stands for the midpoint of the concentration-response curve. Broadly, the AC50 is the midpoint of the concentration-response curve, whichever way the signal moves.

Assay [1] can be described thus: microbe, parasite or virus in culture. In kind it is functional. The note with it: Mycobacterium tuberculosis.
In another assay the target is Large T antigen (Simian virus 40, UniProt P03070). The class given is functional, Betapolyomavirus macacae.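 Note: Confirmatory-stage PubChem screen for compounds that inhibit SV40 T antigen.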
Large T antigen, sequence (P03070 whole entry): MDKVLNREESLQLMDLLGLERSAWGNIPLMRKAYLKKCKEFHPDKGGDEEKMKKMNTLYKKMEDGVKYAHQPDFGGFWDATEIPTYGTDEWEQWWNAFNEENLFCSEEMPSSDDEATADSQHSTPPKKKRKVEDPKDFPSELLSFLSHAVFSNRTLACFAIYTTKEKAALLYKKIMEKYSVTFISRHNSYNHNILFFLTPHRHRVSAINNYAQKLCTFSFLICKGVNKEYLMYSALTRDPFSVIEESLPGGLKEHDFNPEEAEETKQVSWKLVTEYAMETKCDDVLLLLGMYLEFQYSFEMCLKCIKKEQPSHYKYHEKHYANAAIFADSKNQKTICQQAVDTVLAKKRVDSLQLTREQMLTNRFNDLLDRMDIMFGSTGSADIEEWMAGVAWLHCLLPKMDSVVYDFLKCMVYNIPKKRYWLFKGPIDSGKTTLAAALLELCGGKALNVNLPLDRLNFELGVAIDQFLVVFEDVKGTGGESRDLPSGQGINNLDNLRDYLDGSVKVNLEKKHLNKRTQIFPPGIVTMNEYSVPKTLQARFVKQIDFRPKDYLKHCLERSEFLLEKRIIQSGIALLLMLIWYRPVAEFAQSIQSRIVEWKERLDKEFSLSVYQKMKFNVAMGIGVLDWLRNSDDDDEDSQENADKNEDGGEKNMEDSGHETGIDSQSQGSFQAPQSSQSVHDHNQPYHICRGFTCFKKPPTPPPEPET
Assay [2] addresses T1, Heat shock factor protein 1 (Mus musculus, UniProt P38532).
T1 sequence (P38532 whole entry): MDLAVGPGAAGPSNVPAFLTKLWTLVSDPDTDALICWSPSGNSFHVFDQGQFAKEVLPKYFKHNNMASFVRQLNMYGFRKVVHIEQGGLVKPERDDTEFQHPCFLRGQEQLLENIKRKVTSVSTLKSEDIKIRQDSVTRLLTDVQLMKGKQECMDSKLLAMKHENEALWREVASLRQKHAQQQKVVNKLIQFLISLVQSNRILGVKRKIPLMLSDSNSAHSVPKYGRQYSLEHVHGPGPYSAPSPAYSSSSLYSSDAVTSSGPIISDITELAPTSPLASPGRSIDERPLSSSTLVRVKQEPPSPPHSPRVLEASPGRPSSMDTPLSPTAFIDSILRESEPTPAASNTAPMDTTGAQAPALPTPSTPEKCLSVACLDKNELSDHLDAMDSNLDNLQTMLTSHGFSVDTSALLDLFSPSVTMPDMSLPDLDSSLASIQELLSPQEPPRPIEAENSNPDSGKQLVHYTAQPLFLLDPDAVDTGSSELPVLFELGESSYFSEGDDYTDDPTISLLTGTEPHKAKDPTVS
Nature of the assay: decrease of HSF1-responsive luciferase luminescence – cell-based, NIH3T3, dose retest, confirmation (AID 2382).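 Note: NIH3T3 fibroblasts with HSF1-driven luciferase reporter stressed by proteasome inhibitor MG132; luminescence from HSF1-driven luciferase expression after 8 hours of MG132 stress.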 In kind it is functional.

The target in the next assay is Genome polyprotein (dengue virus type 2, UniProt P29990). In words: flavivirus cap methylation enzyme inhibition – biochemical, confirmation dose response, primary screen (AID 588689). In kind it is functional.
Genome polyprotein, sequence (P29990 2492-3391 limits assumed): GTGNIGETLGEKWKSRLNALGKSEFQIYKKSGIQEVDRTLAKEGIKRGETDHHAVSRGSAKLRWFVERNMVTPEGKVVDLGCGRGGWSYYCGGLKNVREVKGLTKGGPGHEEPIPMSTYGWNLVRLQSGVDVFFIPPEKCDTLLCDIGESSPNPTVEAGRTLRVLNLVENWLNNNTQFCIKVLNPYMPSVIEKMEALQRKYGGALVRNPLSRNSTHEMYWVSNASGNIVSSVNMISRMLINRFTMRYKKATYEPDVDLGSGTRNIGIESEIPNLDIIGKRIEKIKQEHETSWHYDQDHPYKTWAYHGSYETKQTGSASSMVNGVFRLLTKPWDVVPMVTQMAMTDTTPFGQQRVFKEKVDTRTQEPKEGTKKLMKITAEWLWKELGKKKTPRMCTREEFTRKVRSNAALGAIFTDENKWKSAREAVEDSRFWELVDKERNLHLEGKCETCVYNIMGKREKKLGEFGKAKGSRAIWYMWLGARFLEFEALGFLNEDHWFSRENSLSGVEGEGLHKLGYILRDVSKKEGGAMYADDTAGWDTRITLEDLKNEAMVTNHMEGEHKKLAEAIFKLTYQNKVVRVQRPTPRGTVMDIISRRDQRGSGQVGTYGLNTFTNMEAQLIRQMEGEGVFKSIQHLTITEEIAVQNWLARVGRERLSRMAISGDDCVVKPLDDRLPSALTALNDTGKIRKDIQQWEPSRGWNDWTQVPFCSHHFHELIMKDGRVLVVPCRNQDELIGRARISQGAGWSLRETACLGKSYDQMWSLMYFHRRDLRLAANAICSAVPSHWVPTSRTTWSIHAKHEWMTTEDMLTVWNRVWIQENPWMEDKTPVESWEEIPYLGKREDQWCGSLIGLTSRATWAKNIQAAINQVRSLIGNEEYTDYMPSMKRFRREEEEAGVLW
In a further assay the target is Nonstructural protein 1 (Influenza A virus, UniProt Q194T2). In kind it is functional, Influenza A virus (A/California/07/2009(H1N1)).
Nonstructural protein 1, sequence (Q194T2 whole entry): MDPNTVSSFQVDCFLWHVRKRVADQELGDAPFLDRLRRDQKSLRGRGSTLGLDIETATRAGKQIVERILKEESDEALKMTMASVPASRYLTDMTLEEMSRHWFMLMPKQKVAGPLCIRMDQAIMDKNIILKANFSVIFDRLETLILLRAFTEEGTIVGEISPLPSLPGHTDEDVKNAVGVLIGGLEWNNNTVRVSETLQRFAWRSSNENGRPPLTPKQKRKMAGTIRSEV
A short description of assay [3]: HEK-293T cell viability reduction – luminescence, B-cell screen hits, cytotoxicity control for BCR NF-kB inhibitor project, dose response (AID 489021).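 Note: HEK-293T cells carrying an NF-kB luciferase reporter; cells exposed to compound for about 14 hours before viability readout.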 In kind it is functional, cell-based.
Assay [4] has as its target DNA dC->dU-editing enzyme APOBEC-3G (Homo sapiens, UniProt Q9HC16). In words: Dose Response confirmation of small molecule APOBEC3G DNA Deaminase Inhibitors via a fluorescence-based single-stranded DNA deaminase assay. [Related pubchem assays (depositor defined):AID493012, AID493028]. In kind it is functional.
Assay [5] is described as follows: NIH3T3 cell viability loss – ATP luminescence, mouse fibroblasts, counter-screen, dose response (AID 2010).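 Note: cells exposed to compound for about 90 hours before reading.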 In kind it is functional, cell-based. (A counterscreen serves to expose hits that act by an unwanted route or on another target.)
Assay [6] in a line: Trypanosoma cruzi growth suppression in host cells – NIH3T3 host cells, beta-gal luminescence, confirmation (AID 2044).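 Note: intracellular parasites grown in NIH/3T3 mouse fibroblasts as host cells; luminescent beta-galactosidase reporter signal from transgenic T. cruzi replicating inside host cells; inhibitors lower the luminescence signal.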 The class given is functional, cell-based.
The target in assay [7] is T2, Replicative DNA helicase DnaB (Mycobacterium tuberculosis, UniProt P9WMR3).
T2 sequence (P9WMR3 whole entry): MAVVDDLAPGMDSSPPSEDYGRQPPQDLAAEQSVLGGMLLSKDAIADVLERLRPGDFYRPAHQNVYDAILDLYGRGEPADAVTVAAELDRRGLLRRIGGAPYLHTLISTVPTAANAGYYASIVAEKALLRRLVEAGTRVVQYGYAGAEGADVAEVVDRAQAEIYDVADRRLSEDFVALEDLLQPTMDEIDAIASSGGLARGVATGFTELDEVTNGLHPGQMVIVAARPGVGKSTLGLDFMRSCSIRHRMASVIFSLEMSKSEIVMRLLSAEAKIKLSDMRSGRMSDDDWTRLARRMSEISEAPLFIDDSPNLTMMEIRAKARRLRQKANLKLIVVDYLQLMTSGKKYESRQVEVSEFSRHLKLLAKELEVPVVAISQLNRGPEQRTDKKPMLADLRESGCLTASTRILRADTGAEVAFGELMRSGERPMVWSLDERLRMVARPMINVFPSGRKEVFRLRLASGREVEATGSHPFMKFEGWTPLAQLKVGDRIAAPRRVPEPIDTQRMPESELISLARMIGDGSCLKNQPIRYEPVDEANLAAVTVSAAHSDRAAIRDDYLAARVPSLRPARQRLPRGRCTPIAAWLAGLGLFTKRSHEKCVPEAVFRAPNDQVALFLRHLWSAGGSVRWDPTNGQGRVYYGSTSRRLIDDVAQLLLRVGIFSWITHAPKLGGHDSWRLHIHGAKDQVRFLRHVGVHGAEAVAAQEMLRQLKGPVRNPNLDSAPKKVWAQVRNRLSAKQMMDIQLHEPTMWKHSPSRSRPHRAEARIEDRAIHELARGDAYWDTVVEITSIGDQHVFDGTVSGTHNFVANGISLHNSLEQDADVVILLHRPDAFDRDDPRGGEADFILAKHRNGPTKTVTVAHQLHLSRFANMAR
Nature of the assay: DnaB intein splicing inhibitors, dose response, biochemical, cell-free fluorescence (AID 449749). In kind it is functional.

The next assay deals with T3, Protein RecA (Mycobacterium tuberculosis, UniProt P9WHJ3).
T3 sequence (P9WHJ3 whole entry): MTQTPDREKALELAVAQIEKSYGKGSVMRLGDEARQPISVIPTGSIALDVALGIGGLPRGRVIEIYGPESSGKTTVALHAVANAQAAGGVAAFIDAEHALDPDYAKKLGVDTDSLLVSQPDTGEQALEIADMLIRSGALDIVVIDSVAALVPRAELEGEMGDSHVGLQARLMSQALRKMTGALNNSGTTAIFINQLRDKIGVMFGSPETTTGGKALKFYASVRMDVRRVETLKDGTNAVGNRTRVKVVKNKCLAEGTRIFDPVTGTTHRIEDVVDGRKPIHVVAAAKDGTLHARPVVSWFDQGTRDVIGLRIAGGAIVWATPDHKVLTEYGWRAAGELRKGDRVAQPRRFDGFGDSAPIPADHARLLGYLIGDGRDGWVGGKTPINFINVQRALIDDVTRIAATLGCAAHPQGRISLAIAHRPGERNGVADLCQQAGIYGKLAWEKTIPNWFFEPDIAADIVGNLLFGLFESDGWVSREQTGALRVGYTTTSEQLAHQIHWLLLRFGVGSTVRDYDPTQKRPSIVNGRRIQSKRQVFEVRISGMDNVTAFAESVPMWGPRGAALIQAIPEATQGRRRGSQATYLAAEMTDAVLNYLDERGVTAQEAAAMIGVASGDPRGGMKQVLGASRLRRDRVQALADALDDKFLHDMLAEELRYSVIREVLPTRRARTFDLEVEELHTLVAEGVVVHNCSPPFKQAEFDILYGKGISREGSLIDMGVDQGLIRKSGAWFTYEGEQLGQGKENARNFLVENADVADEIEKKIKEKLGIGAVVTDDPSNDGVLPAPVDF
Nature of the assay: Fluorescence Cell-Free Homogeneous Dose Retest to Identify Inhibitors of RecA-Intein Splicing Activity. [Related pubchem assays (depositor defined):AID2097, AID2223, AID489010, AID492950]. The class given is functional.

The subject of assay [8] is BJ. In words: BJ-TERT fibroblast viability loss – cell-based, RAS-independent, luminescence, dose response (AID 1933). The class given is functional. As to conditions: Homo sapiens.
A short description of assay [9]: HEK-293T viability loss after treatment – luminescence, T-cell screen hits, cytotoxicity control for TCR NF-kB inhibitor project, dose response (AID 489026).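 Note: cells exposed to compound about 14 hours before the viability readout.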 The class given is functional, cell-based.
The test system of assay [10] is BJ. In words: BJ-TERT-LT-ST fibroblast viability loss – cell-based, RAS-independent, luminescence, dose response (AID 1935).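 Note: BJ fibroblasts immortalized with TERT plus LT and ST oncogenes.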 The note with it: Homo sapiens. In kind it is functional.
The subject of assay [11] is BJ. Nature of the assay: cells. In kind it is functional, cell-based. The note with it: Homo sapiens.
Assay [12] can be described thus: Luminescence Cell-Based Dose Retest to Confirm Inhibitors of Cancer Stem Cells. [Related pubchem assays (depositor defined):AID2717, AID2721]. The note with it: Homo sapiens. In kind it is functional.
A short description of assay [13]: DRD fibroblast viability loss – cell-based, non-viral oncogenic, luminescence, dose response (AID 1934). The class given is functional. The note with it: Homo sapiens.
The target in another assay is Prothrombin (Homo sapiens, UniProt P00734). In words: Thrombin 1536 HTS Dose Response Confirmation. [Related pubchem assays: 1046 (Thrombin 1536 HTS; hits were confirmed in this assay)]. In kind it is functional.
A further assay concerns H4. Nature of the assay: Luminescence Cell-Based Dose Response HTS to Identify Activators of 5'UTR Stem-Loop Driven Prion Protein mRNA Translation in H4 Neuroglioblastoma Cells. [Related pubchem assays: 1829 (Project Summary), 1814 (Primary HTS)]. The class given is functional. As to conditions: Homo sapiens.
The nature of assay [14]: Luminescence Cell-Based Dose Confirmation HTS to Identify Activators of 5'UTR Stem-Loop Driven Alpha-Synuclein mRNA Translation in H4 Neuroglioblastoma Cells. [Related pubchem assays: 1829 (Project Summary), 1814 (Primary HTS)]. In kind it is functional.
Assay [15] can be described thus: Luminescence Cell-Based Dose Response HTS to Identify Activators of Luciferase Translation or Activity in H4 […] Cells. [Related pubchem assays: 1829 (Project Summary), 1814 (Primary HTS)]. The class given is functional.
The nature of assay [16]: viability of HCT116 lacking mutant beta-catenin – cell-based, human colon tumor, dose response (AID 1045).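 Note: HCT116 colon tumor cells with beta catenin knocked out; cells exposed to compound for 60 hours.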 In kind it is functional.
Assay [17] can be described thus: viability of PTEN-deleted HCT116 cells – cell-based, HCT116 PTEN knockout, dose response (AID 1047).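 Note: HCT116 colon tumor cells with PTEN knocked out; cells exposed to compound for 60 hours before readout; potency for loss of cell viability measured by luminescence.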 The class given is functional.

DNA dC->dU-editing enzyme APOBEC-3G, sequence (Q9HC16 whole entry): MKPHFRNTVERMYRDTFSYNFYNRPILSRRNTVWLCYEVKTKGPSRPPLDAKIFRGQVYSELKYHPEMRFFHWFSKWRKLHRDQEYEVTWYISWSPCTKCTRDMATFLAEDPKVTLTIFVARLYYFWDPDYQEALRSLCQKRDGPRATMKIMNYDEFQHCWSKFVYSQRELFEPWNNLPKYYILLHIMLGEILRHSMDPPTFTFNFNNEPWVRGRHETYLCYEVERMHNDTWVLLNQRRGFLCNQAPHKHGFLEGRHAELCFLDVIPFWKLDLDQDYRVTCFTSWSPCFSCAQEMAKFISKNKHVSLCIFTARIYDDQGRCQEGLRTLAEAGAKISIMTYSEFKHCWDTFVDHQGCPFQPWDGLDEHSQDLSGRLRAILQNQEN

For `CCN(CC)Cc1nc(O)c2c(n1)-c1ccccc1CC2(CC)CC`, the CC50 in [1] is > 40 µM (active).

As to `COc1ccc(CNc2ccc(N3CCOCC3)cc2)cc1`, the IC50 at Large T antigen was 16.8 µM (active).

For the compound `CC1=C(C#N)c2nc(N)c(C#N)c(C)c2/C1=C\c1ccc(OCC(=O)O)c(Cl)c1`, the EC50 in assay [2] was > 195 µM (not active). The values for the IC50 on Large T antigen and at Genome polyprotein were 44.3 µM (active) and 35.9 µM (active), respectively.

For the compound `Nn1c(SC/C=C/c2ccccc2)nnc1-c1ccccn1`, on Nonstructural protein 1, the IC50 was 24 µM (active).

Consider `COc1ccc(-c2ccc(F)cc2)cc1[C@H]1[C@H]2C=CC[C@@H](C)[C@@H]2C(=O)N1Cc1ccccc1`, for which the IC50 in assay [3] is > 80 µM (inactive).

Turning to `CCCCC(=O)Nc1sc(C(=O)N(CC)CC)c(C)c1C(=O)OC`, in assay [2], the EC50 was > 195 µM (not active). In assay [4], the IC50 is 49.6 µM (active).

Regarding `CN1CCN(C(=O)c2ccccc2N(Cc2ccccc2)S(=O)(=O)c2ccccc2)CC1`, the IC50 in [3] is > 80 µM (inactive).

Regarding `CCC1C(c2ccccc2)N(C)C(c2ccccc2)CC1(O)c1ccccc1` (centres undefined), the EC50 in assay [5] is > 60 µM (not active); in assay [6], 2.31 µM (active). Further, the CC50 in assay [1] is > 40 µM (active).

Consider `CC1=NN(Cc2ccccc2)C(=O)/C1=C/c1ccc(N(C)C)cc1`, for which the AC50 in [7] was 4.15 µM (active). The EC50 at Protein RecA is 1.22 µM (active). For the same compound, on Nonstructural protein 1, the IC50 was 50.9 µM (active).

With `O=C(Nc1ccc(O)cc1)/C(=C\c1ccncc1)NC(=O)c1ccccc1`, on Large T antigen, the IC50 is 27.7 µM (active).

With `O=C(CCCN1C(=O)/C(=C/c2ccccc2Cl)SC1=S)Nc1cccnc1`, the IC50 in assay [3] was > 80 µM (inactive).

Take `C=C(C)COc1ccc(-c2n[nH]cc2-c2ccc(OC)c(OC)c2)c(O)c1`: the EC50 was 8.31 µM (active) in the assay with BJ [8], 2.48 µM (active) with BJ [10], 1.84 µM (active) in the assay on BJ [11] and 2.4 µM (active) in [13]. For the same compound, the IC50 in assay [9] was 34.3 µM (inactive). In addition, in assay [12], the AC50 is 0.882 µM (active).

Consider `C/C(=C/C(=O)N1CCN(C)CC1)C(=O)O`, for which the IC50 against Prothrombin is > 50 µM (not active). Moreover, the EC50 in assay [2] was 36.8 µM (active).

As for `COc1ccc(NCc2nc3ccccc3n2CCOc2ccccc2)cc1`, the EC50 was 79.8 µM (active) in the assay with H4; > 60 µM (not active) in [5]; 7.26 µM (active) in assay [14]; 53.4 µM (active) in assay [15]; 2.36 µM (active) in assay [6]. In assay [1], the CC50 is > 40 µM (active).

As to `Cc1ccc(S(=O)(=O)N2CCN(C(=O)c3ccc(N4CCCC4)c([N+](=O)[O-])c3)CC2)cc1`, the IC50 at Nonstructural protein 1 is > 100 µM (active).

Consider `CCOC(=O)CSC1=C(C#N)C(c2ccc(C)s2)CC(=O)N1` (centres undefined), for which the IC50 in assay [9] is > 80 µM (inactive).

In the case of `COc1cc(C(=O)Nc2cc(C)c(OCC(=O)N3CCOCC3)c(C)c2)cc(OC)c1OC`, the IC50 in assay [3] is > 80 µM (inactive).

`COc1ccc(/C=N\NC(=O)c2ccccc2F)cc1COc1ccc(F)cc1F`: the IC50 in assay [9] is > 80 µM (inactive).

`CCOc1cc(C(=O)N/N=C/C(Br)=C/c2ccccc2)cc(OCC)c1OCC`: the IC50 in assay [9] was > 80 µM (inactive). Further, the EC50 in assay [16] is 1.34 µM (active); in [17], 1.39 µM (active).
